From US5633437A, “Gene exhibiting resistance to acetolactate synthase inhibitor herbicides” (Sandoz Ltd., priority 1994, dated 1997)
Counter-ions that a name gives are not always drawn.

Experiments:
[1] = tested on: acetolactate synthase (ALS), resistant enzyme from R-XANST; test: ALS enzymatic evaluation, resistant enzyme isolated from R-XANST; assay type: biochemical; details: ratio I50 resistant / I50 sensitive enzyme
Description: (§1) Cocklebur is grown in a greenhouse. Five grams of fresh green leaf tissue are ground to a powder in a mortar at the temperature of liquid nitrogen. The powder is extracted with 100 ml of buffer containing 50 mM N-[2-hydroxyethyl]piperazine-N'-[3-propanesulfonic acid], (EPPS); pH 7.2; 5 mM MgCl2; 2 mM EDTA; 1 mM valine; 1 mM leucine; 10% glycerol; 10 mM pyruvate; 5 mM Dithiothreitol; 1% polyvinyl polypyrrolidone (PVPP) and […] flavin adenine dinucleotide and filtered through cheesecloth. The filtrate was centrifuged at 15,000×g for 15 min.
(§2) The procedures used for the isolation of ALS from cocklebur are similar to those known in the art. The supernatant resulting from centrifugation of the crude extract is brought to 40% ammonium sulfate. The ammonium sulfate pellet is not frozen and is resuspended in standard buffer used for I50 determinations and then gel-filtered through the same buffer. This preparation is used for determinations of Km for pyruvate and I50. The Km is equal to the substrate concentration at which the initial reaction velocity is half maximal and also referred to as the Michaelis-Menten constant. The Km is determined using Lineweaver-Burke double reciporcial plots. I50 is the concentration in which 50% inhibition is observed and is determined from linear regression analysis of the linear portion of the dose/response curve.
(§3) The I50 values by various ALS inhibitors are determined on both sensitive enzymes isolated from S-XANST and resistant enzymes isolated from R-XANST and are reported in Table 1.

[2] = target: T1, acetolactate synthase (ALS), resistant enzyme from R-XANST (Xanthium sp., UniProt Q41716); test: as above; assay type: biochemical; details: ALS from R-XANST leaves, 40% ammonium sulfate fraction; read-out: I50 (M) Resistant
T1 construct: mature chloroplast form
T1 sequence (Q41716 78-648): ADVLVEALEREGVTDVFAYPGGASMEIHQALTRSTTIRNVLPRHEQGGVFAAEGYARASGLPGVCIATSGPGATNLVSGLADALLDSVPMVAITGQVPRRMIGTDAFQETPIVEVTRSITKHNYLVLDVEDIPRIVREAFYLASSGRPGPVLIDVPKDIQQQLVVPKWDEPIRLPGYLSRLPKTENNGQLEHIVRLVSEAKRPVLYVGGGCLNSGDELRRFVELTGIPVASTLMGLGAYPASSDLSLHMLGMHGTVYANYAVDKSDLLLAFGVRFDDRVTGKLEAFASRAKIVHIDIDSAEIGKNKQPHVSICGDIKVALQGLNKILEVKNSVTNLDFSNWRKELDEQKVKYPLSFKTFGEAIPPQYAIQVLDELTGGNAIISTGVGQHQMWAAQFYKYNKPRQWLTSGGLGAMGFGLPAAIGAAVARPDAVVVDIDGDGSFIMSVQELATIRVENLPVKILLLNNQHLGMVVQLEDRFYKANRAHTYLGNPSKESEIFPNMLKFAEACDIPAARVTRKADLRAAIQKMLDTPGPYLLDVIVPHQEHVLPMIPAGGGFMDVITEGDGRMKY
Description: as §1, §2, §3

[3] = tested on: S-XANST (susceptible cocklebur); test: Herbicidal evaluation, post-emergence spray on susceptible cocklebur; assay type: in vivo, cocklebur (Xanthium sp.)
Description: (§4) Seeds of S-XANST and R-XANST are planted one per pot in soil mix. Pots are placed on a heating mat and the soil temperature increased from about 65° F. to about 90° F. At the 2-3 leaf stage, plants are treated with test herbicides using a linear track laboratory sprayer calibrated to deliver 42.5 GPA. Plants are watered by subirrigation after herbicide application. Observations of percent control are made 21 days after herbicide application. The test ALS inhibitor herbicides are listed below including their chemical class:
(§5) The effect of the various ALS inhibitors against R-XANST and S-XANST is depicted in FIG. 5. The results are reported as % control wherein 100% injury is equal to complete control as determined by growth. All treatments are replicated four times in a randomized complete block design.
(§6) Additionally tests are preformed at much higher herbicide rates to determine the extent of resistance. […] Glean tested at 1.56 lb ai/A, a rate of 100 times field use, provided 88% injury to R-XANST. Pursuit provides 90% injury to R-XANST when used at 100 times the normal field rate, (6.25 lb ai/A).

[4] = tested on: R-XANST (resistant cocklebur biotype); test: Herbicidal evaluation, post-emergence spray on resistant cocklebur; assay type: in vivo, cocklebur (Xanthium sp.)
Description: as §4, §5, §6

[5] = target: T2, acetolactate synthase (ALS), sensitive enzyme from S-XANST (Xanthium sp., UniProt Q41717); test: ALS enzymatic evaluation, sensitive enzyme isolated from S-XANST; assay type: biochemical, cocklebur (Xanthium sp.); details: ALS from S-XANST leaves, 40% ammonium sulfate fraction; read-out: I50 (M) Sensitive
T2 construct: mature chloroplast form
T2 sequence (Q41717 78-648): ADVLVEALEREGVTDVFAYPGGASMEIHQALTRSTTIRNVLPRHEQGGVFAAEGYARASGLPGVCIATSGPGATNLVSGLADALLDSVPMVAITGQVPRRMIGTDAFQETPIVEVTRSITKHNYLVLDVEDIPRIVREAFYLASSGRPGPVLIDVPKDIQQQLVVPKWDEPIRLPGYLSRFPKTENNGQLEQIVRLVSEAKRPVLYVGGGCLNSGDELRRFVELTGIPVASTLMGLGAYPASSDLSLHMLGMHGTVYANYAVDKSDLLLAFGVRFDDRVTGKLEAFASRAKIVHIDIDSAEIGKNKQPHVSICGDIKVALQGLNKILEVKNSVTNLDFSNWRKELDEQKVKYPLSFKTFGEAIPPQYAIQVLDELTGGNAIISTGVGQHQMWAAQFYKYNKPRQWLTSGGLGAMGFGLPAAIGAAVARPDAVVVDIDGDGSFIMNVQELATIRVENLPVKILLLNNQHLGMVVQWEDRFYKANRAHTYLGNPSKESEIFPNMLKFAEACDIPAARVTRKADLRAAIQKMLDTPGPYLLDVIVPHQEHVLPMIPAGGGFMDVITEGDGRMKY
Description: as §1
as §2, with “I50 is the concentration in which 50% inhibition is observed and is determined from linear regression analysis of the linear portion of the dose/response curve.” left out
as §3

[6] = substrate: CC(=O)C(=O)O; test: ALS enzymatic evaluation, resistant enzyme isolated from R-XANST; assay type: biochemical; details: other: R-XANST enzyme; Lineweaver-Burke plots; pH 7.2
Description: as §1
as §2, with “I50 is the concentration in which 50% inhibition is observed and is determined from linear regression analysis of the linear portion of the dose/response curve.” left out
as §3

Row | Molecule | Fold-resistance (R/S) [1] | IC50 [2] | further results
1 | CC(C)C1(C)N=C(c2nc3ccccc3cc2C(=O)O)NC1=O (stereo not drawn) [Imazaquin, 2-[4,5-dihydro-4-methyl-4-(1-methylethyl)-5-oxo-1H-imidazole-2-yl]-3-quinolinecarboxylic acid] | 250 | 0.0001 M | 
2 | COc1cc(OC)nc(C(=O)c2c(Cl)ccc(Cl)c2C(=O)O)n1 [Di-Cl benzoate] | 2,200 | 0.0006 M | 
3 | Cc1ccn2nc(S(=O)(=O)Nc3c(F)cccc3F)nc2n1 [Broadstrike] | 10,000 | 0.0006 M | injury to S-XANST ([3]; 0.01 lb ai/A): greater than 95%; injury on R-XANST ([4]; 6 lb ai/A): 25%
4 | COc1cc(OC)nc(C(=O)c2c(Cl)ccc(Cl)c2C(=O)O)n1 [SAN 2, 3-6-Dichloro-2-[(4,6-dimethoxy-2-pyrimidinyl)carbonyl]benzoic acid, isopropyl ammonium salt] |  |  | injury to S-XANST ([3]; 0.1 lb ai/A, 2-3 leaf stage, 21 days after application): greater than 95%; injury to R-XANST ([4]; 30 lb ai/A, 21 days after application): ≤ 50%
5 | CC(C)C[C@H](N)C(=O)O [Leucine] | 1 | 0.001 M | 
6 | COc1nc(C)nc(NC(=O)NS(=O)(=O)c2ccccc2Cl)n1 [Chlorsulfurson, 2-chloro-N-[[CH-methoxy-6-methyl-1,3,5-triazin-2-yl-amino]carbonyl]benzenesulfonamide] | 6,250 | 5e-05 M | injury to R-XANST ([4]; 1.56 lb ai/A, 100 times field use): 88%
7 | COc1cc(OC)nc(Sc2cccc(Cl)c2C(=O)O)n1 [Staple] |  |  | injury to S-XANST ([3]; 0.03 lb ai/A, 21 days after application): greater than 90%; injury to R-XANST ([4]; highest test rate, 9.0 lb ai/A): ≤ 55%
8 | Picolinate | 1,100 | 0.001 M | IC50 [5]: 9e-08 M
9 | CCc1cnc(C2=NC(C)(C(C)C)C(=O)N2)c(C(=O)O)c1 (single isomer, unassigned; (+)) [Imazethapyr, (+)-2-[4,5-dihydro-4-methyl-4-(1-methylethyl)-5-oxo-1H-imidazole-2-yl]-5-ethyl-3-pyridinecarboxylic acid] | 100 | 0.0001 M | injury to R-XANST ([4]; 100 times the normal field rate, 6.25 lb ai/A): 90%
10 | acetolactate synthase (ALS), resistant enzyme from R-XANST (Xanthium sp.) (protein, mature chloroplast form) ADVLVEALEREGVTDVFAYPGGASMEIHQALTRSTTIRNVLPRHEQGGVFAAEGYARASGLPGVCIATSGPGATNLVSGLADALLDSVPMVAITGQVPRRMIGTDAFQETPIVEVTRSITKHNYLVLDVEDIPRIVREAFYLASSGRPGPVLIDVPKDIQQQLVVPKWDEPIRLPGYLSRLPKTENNGQLEHIVRLVSEAKRPVLYVGGGCLNSGDELRRFVELTGIPVASTLMGLGAYPASSDLSLHMLGMHGTVYANYAVDKSDLLLAFGVRFDDRVTGKLEAFASRAKIVHIDIDSAEIGKNKQPHVSICGDIKVALQGLNKILEVKNSVTNLDFSNWRKELDEQKVKYPLSFKTFGEAIPPQYAIQVLDELTGGNAIISTGVGQHQMWAAQFYKYNKPRQWLTSGGLGAMGFGLPAAIGAAVARPDAVVVDIDGDGSFIMSVQELATIRVENLPVKILLLNNQHLGMVVQLEDRFYKANRAHTYLGNPSKESEIFPNMLKFAEACDIPAARVTRKADLRAAIQKMLDTPGPYLLDVIVPHQEHVLPMIPAGGGFMDVITEGDGRMKY |  |  | Km [6]: 6 mM
